Experimental data from patent US20140234227A1, “FOAM FORMULATIONS” (OTIC PHARMA LTD, priority 2011, published 2014).
Structures can show the parent of a compound that is named as a salt.

Columns and labels:
Assay in all cases: Antibiotics-Microbial Assay - Zone of Growth Inhibition
Assay type in all cases: cell-based
E. Coli (ATCC No. 8739) = conditions: LB-agar, 24 hrs at 37° C.
Experimental: (§1) In this assay the diameter (halo) of bacterial growth inhibition around filters soaked with a test item was measured and compared to a standard solution of antibiotic. For this end, sterile Microbiological cotton swabs were soaked with cultures of E. Coli (ATCC No. 8739), S. aureus (ATCC No. 6538) or of Pseudomonas aeruginosa (ATCC No. 9027) and evenly spread on top of LB-agar plates. Filters soaked with the tested formulation were placed on top of the plates and the plates were further incubated for 24 hrs. The diameter (halo) of growth inhibition around each filter was measured after 24 hrs of incubation at 37° C. A solution that contained the same concentration of Ciprofloxacin Hydrochloride (0.35%) as in the formulation tested was used as a control.

[1] = system: Pseudomonas aeruginosa (ATCC No. 9027); conditions: LB-agar, 24 hrs at 37° C.
Experimental: as §1

[2] = system: S. aureus (ATCC No. 6538); conditions: Staph. Aureus, LB-agar, 24 hrs at 37° C.
Experimental: as §1

In the case of `O=C(O)c1cn(C2CC2)c2cc(N3CCNCC3)c(F)cc2c1=O` [Ciprofloxacin HCl solution (0.35%), monohydrochloride monohydrate salt of 1-cyclopropyl-6-fluoro-1,4-dihydro-4-oxo-7-(1-piperazinyl)-3-quinolinecarboxylic acid], the “diameter of growth inhibition” value (E. Coli (ATCC No. 8739)) is reported as 3.6 cm, the “diameter of growth inhibition” value [1] is reported as 4.85 cm and the “diameter of growth inhibition” value [2] is reported as 4.7 cm.
